In patent publication US20260085067A1, “CYCLIC SULFONAMIDE RIBONUCLEOTIDE REDUCTASE (RNR) INHIBITORS AND USES THEREOF” (Boundless Bio, Inc., priority 2022, published 2026) one finds IC50 data, which are given here for 16 compounds.

The target in one assay is T1, RNR (RNR1:RNR2 1:1) (Homo sapiens, UniProt P23921).
T1 sequence (P23921 1-792): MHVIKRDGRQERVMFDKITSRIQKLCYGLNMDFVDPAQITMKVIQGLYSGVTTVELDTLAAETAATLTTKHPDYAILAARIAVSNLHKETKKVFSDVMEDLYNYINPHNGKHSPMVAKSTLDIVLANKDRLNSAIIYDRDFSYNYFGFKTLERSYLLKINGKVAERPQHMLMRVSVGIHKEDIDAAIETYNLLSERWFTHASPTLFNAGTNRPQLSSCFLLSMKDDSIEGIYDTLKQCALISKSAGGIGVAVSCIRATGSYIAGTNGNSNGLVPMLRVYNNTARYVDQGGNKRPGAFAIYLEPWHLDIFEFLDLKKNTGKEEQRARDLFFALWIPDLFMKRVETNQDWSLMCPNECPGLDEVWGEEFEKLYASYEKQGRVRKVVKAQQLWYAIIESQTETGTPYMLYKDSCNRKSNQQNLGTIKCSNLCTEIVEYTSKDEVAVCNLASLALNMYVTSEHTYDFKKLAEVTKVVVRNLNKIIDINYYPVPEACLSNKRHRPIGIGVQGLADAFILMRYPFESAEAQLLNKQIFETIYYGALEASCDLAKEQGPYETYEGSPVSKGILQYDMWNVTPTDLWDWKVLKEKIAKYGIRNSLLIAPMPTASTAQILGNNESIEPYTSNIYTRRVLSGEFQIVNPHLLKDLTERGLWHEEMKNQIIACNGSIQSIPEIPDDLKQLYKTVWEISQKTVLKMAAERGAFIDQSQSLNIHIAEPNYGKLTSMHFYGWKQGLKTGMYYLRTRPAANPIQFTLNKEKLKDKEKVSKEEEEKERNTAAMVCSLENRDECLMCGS
Kind of assay: RNR enzyme activity, rapid-fire mass spectrometry (RF/MS) assay. The class given is biochemical. Particulars: [RNR] 50 nM, 1:1 RNR1:RNR2; CDP 5 μM; ATP 1 mM; 37° C., 45 min; compounds screened up to 50 μM. The procedure, abridged: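 Human RNR (50 nM final, RNR1:RNR2 1:1) pre-incubated 15 min at room temperature, then reacted 45 min at 37 °C with 5 μM CDP and 1 mM ATP, no NADPH. Reaction quenched with 6% HCOOH; product quantified by rapid-fire mass spectrometry.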

The subject of assay [1] is pCHK1 (S345) in Colo320 DM cells. Kind of assay: Alphalisa assay, detection of pCHK1 (S345) in Colo320 DM cells. Particulars: Homo sapiens, COLO 320DM, compound overnight (approximately 16 hours). The class given is cell-based, human. A digest of the protocol: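 Phospho-CHK1 (S345) read by AlphaLisa SureFire in lysates of human colorectal Colo320 DM cells. Compound treatment ran overnight (~16 h, 37 °C, DMSO <0.5%) on cells seeded the day before.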

Bounds are passed on as bounds.

With `Cc1ccc(F)c([C@@H](C)[C@@H](c2n[nH]c(=O)o2)N2CN(CCN3CCN(C)CC3)c3cc(Cl)ccc3S2(=O)=O)c1C` [Example 105, 5-((1S,2R)-1-(6-chloro-4-(2-(4-methylpiperazin-1-yl)ethyl)-1,1-dioxido-3,4-dihydro-2H-benzo[e][1,2,4]thiadiazin-2-yl)-2-(6-fluoro-2,3-dimethylphenyl)propyl)-1,3,4-oxadiazol-2 (3H)-one], the IC50 on RNR (RNR1:RNR2 1:1) is below 20 nM; in assay [1], 1000 to 5000 nM.

For `Cc1ccc(F)c([C@@H](C)[C@@H](c2n[nH]c(=O)o2)N2CN(C3CC3)c3cc(Cl)ccc3S2(=O)=O)c1C` [Example 6, 5-((1S,2R)-1-(6-chloro-4-cyclopropyl-1,1-dioxido-3,4-dihydro-2H-benzo[e][1,2,4]thiadiazin-2-yl)-2-(6-fluoro-2,3-dimethylphenyl)propyl)-1,3,4-oxadiazol-2 (3H)-one], the figures for the IC50 (against RNR (RNR1:RNR2 1:1); in assay [1]) were 20 to 100 nM and at most 1000 nM, respectively.

Take `COC(=O)c1cc(Cl)cc2c1S(=O)(=O)N([C@H](c1n[nH]c(=O)o1)[C@H](C)c1c(F)ccc(C)c1C)CCO2` [Example 18, methyl 7-chloro-2-((1S,2R)-2-(6-fluoro-2,3-dimethylphenyl)-1-(5-oxo-4,5-dihydro-1,3,4-oxadiazol-2-yl)propyl)-3,4-dihydro-2H-benzo[b][1,4,5]oxathiazepine-9-carboxylate 1,1-dioxide]: the figures for the half-maximal inhibitory concentration (IC50) (against RNR (RNR1:RNR2 1:1); in assay [1]) were 100 to 1000 nM and 10000 to 50000 nM, respectively.

In the case of `Cc1ccc(F)c([C@@H](C)[C@@H](c2n[nH]c(=O)o2)N2CN(C3CNC3)c3cc(Cl)ccc3S2(=O)=O)c1C` [Example 57, 5-((1S,2R)-1-(4-(azetidin-3-yl)-6-chloro-1,1-dioxido-3,4-dihydro-2H-benzo[e][1,2,4]thiadiazin-2-yl)-2-(6-fluoro-2,3-dimethylphenyl)propyl)-1,3,4-oxadiazol-2 (3H)-one], the IC50 on RNR (RNR1:RNR2 1:1) fell in the range of 20 to 100 nM; in assay [1] it was 10000 to 50000 nM.

With `Cc1ccc(F)c([C@@H](C)[C@@H](c2n[nH]c(=O)o2)N2CCOc3cc(Cl)ncc3S2(=O)=O)c1C` [Example 17, 5-((1S, 2R)-1-(7-chloro-1,1-dioxido-3,4-dihydro-2H-pyrido[4,3-b][1,4,5]oxathiazepin-2-yl)-2-(6-fluoro-2,3-dimethylphenyl)propyl)-1,3,4-oxadiazol-2 (3H)-one], the IC50 at RNR (RNR1:RNR2 1:1) is 1000 to 10000 nM; in assay [1], above 50000 nM.

As for `CC(=O)c1c(Cl)ccc2c1OCCN([C@H](c1n[nH]c(=O)o1)[C@H](C)c1c(F)ccc(C)c1C)S2(=O)=O` [Example 25, 5-((1S,2R)-1-(6-acetyl-7-chloro-1,1-dioxido-3,4-dihydro-2H-benzo[b][1,4,5]oxathiazepin-2-yl)-2-(6-fluoro-2,3-dimethylphenyl)propyl)-1,3,4-oxadiazol-2 (3H)-one], the results for the IC50 (on RNR (RNR1:RNR2 1:1); in assay [1]) were below 20 nM and 1000 to 5000 nM, respectively.

Regarding `Cc1ccc(F)c([C@@H](C)[C@@H](c2n[nH]c(=O)o2)N2CCN(C)c3cc(Cl)ccc3S2(=O)=O)c1C` [Example 13, 5-((1S,2R)-1-(7-chloro-5-methyl-1,1-dioxido-4,5-dihydrobenzo[f][1,2,5]thiadiazepin-2 (3H)-yl)-2-(6-fluoro-2,3-dimethylphenyl)propyl)-1,3,4-oxadiazol-2 (3H)-one], the values for the IC50 (on RNR (RNR1:RNR2 1:1); in assay [1]) were 20 to 100 nM and 1000 to 5000 nM, respectively.

For the compound `Cc1ccc(F)c([C@@H](C)[C@@H](c2n[nH]c(=O)o2)N2CN(C3CCCOC3)c3cc(Cl)ccc3S2(=O)=O)c1C` (stereo in doubt) [Example 44, 5-((1S,2R)-1-(6-chloro-1,1-dioxido-4-((R)-tetrahydro-2H-pyran-3-yl)-3,4-dihydro-2H-benzo[e][1,2,4]thiadiazin-2-yl)-2-(6-fluoro-2,3-dimethylphenyl)propyl)-1,3,4-oxadiazol-2 (3H)-one], the IC50 against RNR (RNR1:RNR2 1:1) is below 20 nM; in assay [1], at most 1000 nM.

Regarding `Cc1ccc(F)c([C@@H](C)[C@@H](c2n[nH]c(=O)o2)N2CN(C)c3cc(Cl)cc(CO)c3S2(=O)=O)c1C` [Example 72, 5-((1S,2R)-1-(6-chloro-8-(hydroxymethyl)-4-methyl-1,1-dioxido-3,4-dihydro-2H-benzo[e][1,2,4]thiadiazin-2-yl)-2-(6-fluoro-2,3-dimethylphenyl)propyl)-1,3,4-oxadiazol-2 (3H)-one], the IC50 against RNR (RNR1:RNR2 1:1) is below 20 nM; in assay [1], at most 1000 nM.

For `Cc1ccc(F)c([C@@H](C)[C@@H](c2n[nH]c(=O)o2)N2CCOc3cc(Cl)ncc3S2(=O)=O)c1C` [Example 27, 5-((1S,2R)-1-(7-chloro-1,1-dioxido-3,4-dihydro-2H-pyrido[4,3-b][1,4,5]oxathiazepin-2-yl)-2-(6-fluoro-2,3-dimethylphenyl)propyl)-1,3,4-oxadiazol-2 (3H)-one], the IC50 on RNR (RNR1:RNR2 1:1) lay in the range of 1000 to 10000 nM; in assay [1], 10000 to 50000 nM.

With `CC(=O)c1c(Cl)ccc2c1N(C)CN([C@H](c1n[nH]c(=O)o1)[C@H](C)c1c(F)ccc(C)c1C)S2(=O)=O` [Example 64, 5-((1S,2R)-1-(5-acetyl-6-chloro-4-methyl-1,1-dioxido-3,4-dihydro-2H-benzo[e][1,2,4]thiadiazin-2-yl)-2-(6-fluoro-2,3-dimethylphenyl)propyl)-1,3,4-oxadiazol-2 (3H)-one], the IC50 against RNR (RNR1:RNR2 1:1) is 20 to 100 nM; in assay [1] it was at most 1000 nM.

Take `Cc1ccc(F)c([C@@H](C)[C@@H](c2n[nH]c(=O)o2)N2CN(C3CCCN(C)C3)c3cc(Cl)ccc3S2(=O)=O)c1C` (stereo partly drawn) [Example 51, 5-((1S,2R)-1-(6-chloro-4-(1-methylpiperidin-3-yl)-1,1-dioxido-3,4-dihydro-2H-benzo[e][1,2,4]thiadiazin-2-yl)-2-(6-fluoro-2,3-dimethylphenyl)propyl)-1,3,4-oxadiazol-2 (3H)-one]: the concentration for half-maximal inhibition (IC50) on RNR (RNR1:RNR2 1:1) was below 20 nM; in assay [1] it was at most 1000 nM.

For the compound `Cc1ccc(F)c([C@@H](C)[C@@H](c2n[nH]c(=O)o2)N2CN(C)C(=O)c3cc(Cl)ccc3S2(=O)=O)c1C` [Example 35, 5-((1S,2R)-1-(7-chloro-4-methyl-1,1-dioxido-5-oxo-4,5-dihydrobenzo[f][1,2,4]thiadiazepin-2 (3H)-yl)-2-(6-fluoro-2,3-dimethylphenyl)propyl)-1,3,4-oxadiazol-2 (3H)-one], the values for the IC50 (against RNR (RNR1:RNR2 1:1); in assay [1]) were 20 to 100 nM and 10000 to 50000 nM, respectively.

Turning to `Cc1ccc(F)c([C@H](C)[C@@H](c2n[nH]c(=O)o2)N2CN(C)c3cc(Cl)cc(C(=O)N(C)C)c3S2(=O)=O)c1C` [Example 39], the half-inhibitory concentration (IC50) on RNR (RNR1:RNR2 1:1) was 10000 to 100000 nM; in assay [1], above 50000 nM.

For the compound `Cc1ccc(F)c([C@@H](C)[C@@H](c2n[nH]c(=O)o2)N2CN(S(C)(=O)=O)c3cc(Cl)ccc3S2(=O)=O)c1C` [Example 67, 5-((1S,2R)-1-(6-chloro-4-(methylsulfonyl)-1,1-dioxido-3,4-dihydro-2H-benzo[e][1,2,4]thiadiazin-2-yl)-2-(6-fluoro-2,3-dimethylphenyl)propyl)-1,3,4-oxadiazol-2 (3H)-one], the results for the IC50 (against RNR (RNR1:RNR2 1:1); in assay [1]) were 100 to 1000 nM and 5000 to 10000 nM, respectively.

With `Cc1ccc(F)c([C@@H](C)[C@@H](c2n[nH]c(=O)o2)N2CN(CCN3CCOCC3)c3cc(Cl)ccc3S2(=O)=O)c1C` [Example 84, 5-((1S,2R)-1-(6-chloro-4-(2-morpholinoethyl)-1,1-dioxido-3,4-dihydro-2H-benzo[e][1,2,4]thiadiazin-2-yl)-2-(6-fluoro-2,3-dimethylphenyl)propyl)-1,3,4-oxadiazol-2 (3H)-one], the figures for the IC50 (against RNR (RNR1:RNR2 1:1); in assay [1]) were below 20 nM and at most 1000 nM, respectively.

By IC50 is commonly meant the midpoint of a concentration-inhibition curve. A lower IC50 goes with greater potency.
